Counter-ions that a name gives are not always drawn. Like-named read-outs stand apart in the source and are kept apart here. Values belong to the compound of their own block, whether it stands above or below them.
Experiments:
[1] = system: L. major FV1 promastigotes; assay: Anti-promastigote activity (MTS assay), L. major FV1; assay type: cell-based; details: 72 hours
How it was run: (§1)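 Promastigotes (1×10^5 per well) in Schneider's medium pH 6.9 with 10% FBS, exposed to serial compound concentrations for 72 h at 27 °C. Viability by MTS/PMS reduction over 4 h, OD 490 nm; IC50 derived.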

[2] = system: L. amazonensis LV78 promastigotes; assay: Reactive oxygen species (ROS) level, DCFDA, promastigotes; assay type: cell-based; details: 30 μM
Method: (§2) 50,000 RAW264.7 were seeded in each well of black 96-well plates overnight. Next day, RAW264.7 cells were pre-loaded with 10 μM dichlorofluorescein diacetate (DCFDA) (Abcam) for 1 hr at 37° C. with 5% CO2. A control of non-DCFDA stained cells was also included. The DCFDA-contained supplemented DMEM media was removed. The cells were re-suspended with 10 μM or 30 μM of respective tested compounds and positive control, tert-butyl hydroperoxide. In Leishmania, 1×10^7 promastigotes were also pre-loaded with 10 μM DCFDA at 27° C. for 1 hr. After removing the DCFDA-contained media, the promastigotes were seeded into black 96-well plate and incubated with 30 μM of respective compounds or positive control. The ROS level was determined at different periods of time including 2, 4, 6, 8, 20, 46 and 72 hr using microplate reader (excitation: 485 nm and emission: […]).
(§3) The ROS levels in both macrophage RAW264.7 and L. amazonensis promastigotes was measured by dichlorofluorescein diacetate (DCFDA) dye which is permeable to the cells. With oxidative stress, DCFDA would be oxidized to fluorescent DCF which is an indicator of intracellular ROS level. RAW cells or L. amazonensis promastigotes were pre-loaded with 10 μM of DCFDA for 1 hr, washed and exposed to 39, FM09, pentamidine and amphotericin B for different period of time (2, 4, 6, 8, 20, 46 and 72 hr). The fluorescence level was measured at the 520 nm using 485 nm as an excitation wavelength. 0.1% DMSO or 0.3% DMSO was used as a solvent control. The fluorescent value has been subtracted from non-DCFDA stained cells. The values were presented as mean±standard error of mean.

[3] = system: L. donovani Ld39 promastigotes; assay: Anti-promastigote activity (MTS assay), L. donovani Ld39; assay type: cell-based; details: 72 hours
How it was run: as §1

[4] = system: L. donovani Ld39 amastigotes (SSG-resistant); assay: Anti-amastigote activity in infected PEM, L. donovani Ld39; assay type: cell-based; details: for Selective index (a)/(c): IC50 RAW264.7 over IC50 L. donovani Ld39 amastigotes; for IC50: Leishmania donovani, 72 h, infected PEM, 3 days, Giemsa, SSG-resistant
How it was run: (§4)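 Readout was Giemsa counts of amastigotes per 100 macrophages and percentage infected, from which IC50 values were calculated. Treatment lasted 3 days at 37° C. It followed overnight or 24 hr infection of mouse elicited peritoneal macrophages with late-log promastigotes at a 20:1 parasite ratio.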

[5] = Cytotoxicity, RAW264.7 macrophages; assay type: cell-based; details: mouse, RAW264.7 macrophage cells; murine macrophages RAW264.7
Method: Promastigotes of visceral L. donovani Ld39 and LdHU3, and cutaneous L. amazonensis LV78, L. braziliensis UA847 and L. major FV1 were employed in the study. All strains were cultured in Schneider's Drosophila Medium (Invitrogen), pH 6.9 supplemented with 10% (v/v) heat inactivated fetal bovine serum (Hyclone) with 4 mM glutamine (Sigma) and 25 μg/mL gentamicin solution (Invitrogen) at 27° C. for 4 days. RAW264.7 cells were cultured in supplemented DMEM media with 10% heat inactivated FBS and 100 U/mL penicillin and 100 μg/mL of streptomycin. They were maintained at 37° C. in a humidified atmosphere with 5% CO2. The cells were split constantly after a confluent monolayer has been formed. The cells were harvested by a cell scraper.
(§5) IC50 values of known antileishmanials and the amine-containing flavonoid monomers of the present invention to promastigotes (L. amazonensis LV78, L major FV1, L. donovani HU3, L. donovani 39), macrophages (Raw 264.7 and PEM) and mouse fibroblast (L929) were determined. The anti-promastigotes activities and cytotoxicity of the amine-containing flavonoid monomers of the invention are shown in Table 1.

[6] = system: L. braziliensis UA847 amastigotes; assay: Anti-amastigote activity in infected PEM, L. braziliensis UA847; assay type: cell-based; details: Leishmania braziliensis, 72 h, 3 days, Giemsa, read-out: Anti-amastigote activity IC50, L. baziliensis UA847
Method: (§6) Mouse peritoneal elicited macrophages (PEM) were obtained as previously described (2). A round cover slip (12 mm in diameter) was placed into each well of 24-well culture plate. Mouse PEM were resuspended in supplemented DMEM media containing 10% heat inactivated FBS (v/v), 100 U/mL penicillin and 100 μg/mL streptomycin and seeded into each well at a cell density of 1×10^5 cells per 500 μL. Macrophages were allowed to attach overnight. Non-adherent cells were removed by gentle washing with un-supplemented DMEM media twice. Adherent macrophages were infected with late-log promastigotes at a parasite-to-macrophage ratio of 20:1 overnight at 37° C. with 5% CO2. Non-internalized promastigotes were removed by washing twice with un-supplemented DMEM media. Infected macrophages were further incubated in 500 μL of supplemented DMEM media in the presence or absence of FM for 72 hours at 37° C. After incubation, cover slips were stained with Giemsa and the percentage of macrophages infected and number of amastigotes per 100 macrophages was enumerated.
(§7) PEM cells were infected with late-log promastigotes (L. amazonensis LV78, L. braziliensis UA847, L. donovani HU3, L. donovani 39) for 24 hr at 37° C. Infected macrophages were then treated with various antileishmanials and incubated for 3 days at 37° C. After 3 days, the cover slips were stained with Giemsa. The number of amastigotes per 100 macrophages were determined and used to calculate IC50 values.

RAW264.7 cells = assay: Reactive oxygen species (ROS) level, DCFDA, RAW264.7; assay type: cell-based, murine
Method: as §2, §3

[7] = system: L. amazonensis LV78 promastigotes; assay: Anti-promastigote activity (MTS assay), L. amazonensis LV78; assay type: cell-based; details: 72 hours
How it was run: as §1

[8] = Cytotoxicity, peritoneal elicited macrophages (PEM); assay type: cell-based, mouse; details: mouse, peritoneal elicited macrophages (PEM), peritoneal elicited macrophages; read-out: Cytotoxicity IC50, PEM
[9] = system: L. amazonensis LV78 amastigotes; assay: Anti-amastigote activity in infected PEM, L. amazonensis LV78; assay type: cell-based; details: for IC50: infected PEM, 3 days, Giemsa
How it was run: as §4

[10] = system: L. donovani HU3 amastigotes; assay: Anti-amastigote activity in infected PEM, L. donovani HU3; assay type: cell-based; details: for IC50: infected PEM, 3 days, Giemsa, SSG-sensitive
How it was run: as §4

[11] = system: amastigotes (L. amazonensis LV78, L. braziliensis UA847, L. donovani HU3, L. donovani 39); assay: Anti-amastigote activity, strain not given; assay type: cell-based; details: strain not specified; visceral and cutaneous Leishmania; read-out: IC50 against amastigotes
Method: as §6, §7

[12] = Preliminary oral bioavailability, single time point plasma concentration oral vs i.v.; assay type: in vivo, Balb/c mice; details: hydrochloride salt in saline, 30 minutes, dose-normalized
Method: FM01.HCl and FM05.HCl were administered to Balb/c mice via intravenous and passive oral administration. The blood plasma was collected at 30 minutes for LC-MSMS analysis and used for preliminary oral bioavailability screening. The corresponding plasma concentration was normalized by the administered dose for oral bioavailability calculation.
FM01 and FM05 hydrochloride salt was dissolved in saline and administered to Balb/c mice either orally or i.v. Plasma level of FM01 and FM05 was determined 30 minutes later by LC-MS and their identity confirmed by LC-MS/MS. Plasma concentration from oral feeding was divided by that obtained from i.v. administration. […] In these preliminary studies, the ratios were 45% for FM01 and 64% for FM05 (FIG. 3).

[13] = Pharmacokinetics of FM05 hydrochloride salt, oral; assay type: in vivo, Balb/c mice; details: male, Balb/c, mouse, plasma, 42 mg/kg, oral, saline; for half-life: po
Method: Based on the result of the preliminary in vivo study, FM05 hydrochloride salt was selected for further investigation. FM05 hydrochloride salt was dissolved in saline at 4 mg/ml and administered to male balb/c at 42 mg/kg. Blood plasma samples were collected at various time points for pharmacokinetics analysis (n=2 to 3 for each time point).

[14] = system: promastigotes (L. amazonensis LV78, L major FV1, L. donovani HU3, L. donovani 39); assay: Anti-promastigote activity, strain not given; assay type: cell-based; details: Leishmania amazonensis; strain not specified; read-out: IC50 against promastigotes
Method: Anti-promastigote activity was determined according to previous procedures (1) by Cell Titer 96® Aqueous Assay (Promega) that employed a tetrazolium compound. Promastigotes were seeded into 96-well flat bottom microtiter plate at 1×10^5 cells per well in a final volume of 100 μL medium and incubated with a series of concentrations of synthetic FM. Parasites were incubated at 27° C. for 72 hours. After 72 hours of incubation, 10 μL of MTS:PMS mixture [MTS:2-(4,5-Dimethylthiazol-2-yl-)-5-[3-(carboxymethoxy)phenyl]-2-(4-sulfophenyl)-2H-tetrazolium); PMS: phenazine methosulfate both purchased from Sigma] was added into each well of microtiter plate. The plate was then incubated at 27° C. for 4 hours for color development. After 4 hours of incubation, the OD values were determined at 490 nm using automatic microtiter plate reader (Bio-Rad).
as §5

[15] = Cytotoxicity, L929 fibroblasts; assay type: cell-based, mouse; details: mouse
Method: as §5

[16] = system: L. donovani HU3 promastigotes; assay: Anti-promastigote activity (MTS assay), L. donovani HU3; assay type: cell-based; details: 72 hours
How it was run: as §1

mouse fibroblast (L929) = assay: Cytotoxicity, L929 fibroblasts; assay type: cell-based; details: mouse fibroblast L929
Method: as §5

IC50 ([1]; Leishmania major): 17.8 ± 2.2 µM
IC50 [6]: 1100 ± 100 nM
IC50 ([7]; Leishmania amazonensis): 15.7 ± 5.2 µM
IC50 ([9]; Leishmania amazonensis, 72 h): 15.7 ± 5.2 µM
SMILES: N=C(N)c1ccc(OCCCCCOc2ccc(C(=N)N)cc2)cc1 [Pentamidine]
L. amazon LV78 promastigote ROS Level, Relative fold (RF) ([2]; 2 hr): 1.3 fold
L. amazon LV78 promastigote ROS Level, Relative fold (RF) ([2]; 4 hr): 1.4 fold
L. amazon LV78 promastigote ROS Level, Relative fold (RF) ([2]; 6 hr): 1.5 fold
L. amazon LV78 promastigote ROS Level, Relative fold (RF) ([2]; 20 hr): 1.8 fold
L. amazon LV78 promastigote ROS Level, Relative fold (RF) ([2]; 46 hr): about 2.6 fold
L. amazon LV78 promastigote ROS Level, Relative fold (RF) ([2]; 46 hr, listed as pentamidine): 2.6 fold
L. amazon LV78 promastigote ROS Level, Relative fold (RF) ([2]; 72 hr): ~3.4 fold
IC50 ([3]; Leishmania donovani): 5300 ± 900 nM
Selective index (a)/(c) [4]: <1
IC50 [4]: > 30 µM
IC50 [5]: 30 ± 5 µM
RAW264.7 ROS Level, Relative fold (RF) (RAW264.7 cells; 10 μM, 2 hr): 0.9 fold
RAW264.7 ROS Level, Relative fold (RF) (RAW264.7 cells; 10 μM, 4 hr): 0.9 fold
RAW264.7 ROS Level, Relative fold (RF) (RAW264.7 cells; 10 μM, 6 hr): 0.9 fold
RAW264.7 ROS Level, Relative fold (RF) (RAW264.7 cells; 10 μM, 8 hr): 0.8 fold
RAW264.7 ROS Level, Relative fold (RF) (RAW264.7 cells; 10 μM, 20 hr): 0.8 fold
ROS induction in macrophages (RAW264.7 cells; 10 μM, RAW264.7): No ROS induction
RAW264.7 ROS Level, Relative fold (RF) (RAW264.7 cells; 30 μM, 2 hr): 1.1 fold
RAW264.7 ROS Level, Relative fold (RF) (RAW264.7 cells; 30 μM, 4 hr): 1.2 fold
RAW264.7 ROS Level, Relative fold (RF) (RAW264.7 cells; 30 μM, 6 hr): 1.1 fold
RAW264.7 ROS Level, Relative fold (RF) (RAW264.7 cells; 30 μM, 20 hr): 0.9 fold
RAW264.7 ROS Level, Relative fold (RF) (RAW264.7 cells; 30 μM, 46 hr): 0.9 fold
IC50 [8]: 30.4 ± 11 µM
Selective index (a)/(b) ([9]; IC50 RAW264.7 over IC50 L. amazonensis LV78 amastigotes): 1.9

IC50 ([1]; Leishmania major): 3.9 ± 0.8 µM
IC50 ([10]; Leishmania donovani, 72 h): 3500 nM
IC50 [11]: < 5 µM
Ratio of plasma concentration from oral feeding to i.v. administration [12]: 64%
IC50 ([7]; Leishmania amazonensis): 5.1 ± 1 µM
half-life ([13]; read-out: Half-life (Distribution and absorption)): 25 min
half-life ([13]; read-out: Half-life (Elimination)): 202 min
Cmax [13]: 313 ng/mL
Tmax [13]: 2 h
IC50 [14]: < 5 µM
IC50 ([16]; Leishmania donovani): 400 ± 100 nM
IC50 ([9]; Leishmania amazonensis, 72 h): 4.1 ± 0.9 µM
SMILES: O=c1cc(-c2ccc(OCCC3CCN(Cc4ccncc4)CC3)cc2)oc2ccccc12 [FM05, 2-(4-(2-(1-(pyridin-4-ylmethyl)piperidin-4-yl)ethoxy)phenyl)-4H-chromen-4-one]
IC50 ([3]; Leishmania donovani): 300 ± 100 nM
Selective index (a)/(b) ([10]; IC50 RAW264.7 over IC50 L. donovani HU3 amastigotes): 10.5
Selective index (a)/(c) [4]: <3.7
IC50 [4]: > 10 µM
IC50 [15]: > 100 µM

IC50 [1]: 1.2 ± 0.3 µM
IC50 [10]: 1800 nM
IC50 [7]: 0.7 µM
IC50 [16]: 200 ± 100 nM
IC50 [9]: 0.4 µM
SMILES: O=c1cc(-c2ccc(OCCOCCN(Cc3ccccn3)Cc3ccccn3)cc2)oc2ccccc12 [FM09.HCl]
IC50 [3]: 500 ± 100 nM
IC50 (mouse fibroblast (L929)): 20.2 ± 8.4 µM

Reference: patent publication US10111854B2, “Synthesis and use of amine-containing flavonoids as potent anti-leishmanial agents” (The Hong Kong Polytechnic University, priority 2014, dated 2018)
